Literature values, collected in patent US20240115494A1, “ENCAPSULATED COMPOSITIONS AND METHOD OF USE - AFFECTING SATIETY” (Nutragenom, LLC, priority 2021, published 2024).

Conditions: 100% glycerol, quoted for comparison

Viscosity (comparison value): 4,000 mPa·s
Compound: OCC(O)CO [100% glycerol, glycerol]
